SMILES strings stand for the structures.

Data set [1] relates to Salmonella typhimurium. Put plainly: Genotoxicity in Salmonella typhimurium TA102 harboring […] mutant assessed as frequency of reversion from histidine auxotrophy to prototrophy at 0.35 mM after 48 hrs by Ames test (reference value: 209 +/- 10 No _unit). Format: toxicity, organism-based. The following applies: salmonella enterica subsp. enterica serovar typhimurium, 350 µM.

The nature of data set [2]: Genotoxicity in Escherichia coli PQ37 expressing lacZ gene assessed as ratio of inducible beta-galactosidase activity to alkaline phosphatase activity at 1 mM after 2 hrs by SOS-chromotest relative to control. The following applies: Escherichia coli PQ37 cells expressing lacZ gene, read-out: FC. Format: toxicity.
The nature of data set [3]: Cytotoxicity against human U937 cells assessed as reduction in cell viability after 72 hrs by MTT assay. Format: functional, cell-based. The following applies: U-937, 72 h.
Data set [4] deals with Salmonella typhimurium. Put plainly: Genotoxicity in Salmonella typhimurium TA102 harboring […] mutant assessed as frequency of reversion from histidine auxotrophy to prototrophy at 30 mM after 48 hrs by Ames test (reference value: 209 +/- 10 No _unit). The data set is classed as toxicity, organism-based. The following applies: salmonella enterica subsp. enterica serovar typhimurium, 30000 µM.

Data set [5] can be described thus: Cytotoxicity against human MT4 cells assessed as reduction in cell viability after 72 hrs by MTT assay. Format: functional, cell-based. The conditions noted are these: MT4, 72 h.
Data set [6] is described as follows: Cytotoxicity against hamster AG17-1 cells assessed as reduction in cell viability at 300 uM after 72 hrs by MTT assay. Format: toxicity, cell-based, Cricetulus griseus. The conditions noted are these: Chinese hamster, read-out: INH.
The test system of data set [7] is Salmonella enterica subsp. enterica serovar Typhimurium. Put plainly: Antioxidant activity in Salmonella typhimurium TA102 harboring […] mutant assessed as inhibition of t-BuO2H-dependant mutant formation at 3 uM preincubated with compound followed by t-BuO2H addition after 48 hrs by Ames test. The data set is classed as functional.
Data set [8] shares this test system. The experiment in a line: Antioxidant activity in Salmonella typhimurium TA102 harboring […] mutant assessed as inhibition of t-BuO2H-dependant mutant formation at 0.3 uM preincubated with compound followed by t-BuO2H addition after 48 hrs by Ames test. The data set is classed as functional.
Data set [9] in a line: Cytotoxicity against human HepG2 cells assessed as reduction in cell viability after 72 hrs by MTT assay. Format: functional, cell-based. The conditions noted are these: HepG2, 72 h.
The nature of data set [10]: Cytotoxicity against human RPMI8226 cells assessed as reduction in cell viability after 72 hrs by MTT assay. The data set is classed as functional, cell-based. The conditions noted are these: RPMI-8226, 72 h.
The nature of data set [11]: Cytotoxicity against human MCF7 cells assessed as reduction in cell viability after 72 hrs by MTT assay. Format: functional, cell-based. The conditions noted are these: MCF7, 72 h.
The test system of data set [12] is Salmonella enterica subsp. enterica serovar Typhimurium. Put plainly: Antioxidant activity in Salmonella typhimurium TA102 harboring […] mutant assessed as inhibition of t-BuO2H-dependant mutant formation at 30 uM preincubated with compound followed by t-BuO2H addition after 48 hrs by Ames test. Format: functional.
Data set [13] can be described thus: Cytotoxicity against human CEM13 cells assessed as reduction in cell viability at 300 uM after 72 hrs by MTT assay. Format: functional. The following applies: CEM13, 72 h.
A short description of data set [14]: Cytotoxicity against human CEM13 cells assessed as reduction in cell viability after 72 hrs by MTT assay. The data set is classed as functional, cell-based. The conditions noted are these: CEM13, 72 h.
Data set [15] can be described thus: Cytotoxicity against mouse LMTK cells assessed as reduction in cell viability at 300 uM after 72 hrs by MTT assay. The data set is classed as toxicity. The following applies: read-out: INH.
Data set [16] can be described thus: Cytotoxicity against human HepG2 cells assessed as reduction in cell viability at 300 uM after 72 hrs by MTT assay. The data set is classed as functional. The conditions noted are these: HepG2, 72 h.
Data set [17] can be described thus: Cytotoxicity against human MCF7 cells assessed as reduction in cell viability at 300 uM after 72 hrs by MTT assay. The data set is classed as functional. The conditions noted are these: MCF7, 72 h.
A short description of data set [18]: Cytotoxicity against mouse LMTK cells assessed as reduction in cell viability after 72 hrs by MTT assay. Format: toxicity.
A short description of data set [19]: Cytotoxicity against human RPMI8226 cells assessed as reduction in cell viability at 300 uM after 72 hrs by MTT assay. The data set is classed as functional. The following applies: RPMI-8226, 72 h.
Data set [20] in a line: Genotoxicity in Escherichia coli PQ37 expressing lacZ gene assessed as ratio of inducible beta-galactosidase activity to alkaline phosphatase activity at 3 mM after 2 hrs by SOS-chromotest relative to control. The data set is classed as toxicity. The following applies: Escherichia coli PQ37 cells expressing lacZ gene, read-out: FC.
A short description of data set [21]: Cytotoxicity against hamster AG17-1 cells assessed as reduction in cell viability after 72 hrs by MTT assay. The following applies: Chinese hamster. The data set is classed as toxicity, cell-based, Cricetulus griseus.
Data set [22] in a line: Ratio of IC50 for human MT4 cells to concentration causing antioxidant activity in Salmonella typhimurium TA102 harboring […] mutant. Format: functional.
A short description of data set [23]: Genotoxicity in Escherichia coli PQ37 expressing lacZ gene assessed as ratio of inducible beta-galactosidase activity to alkaline phosphatase activity at 30 mM after 2 hrs by SOS-chromotest relative to control. Format: toxicity. The conditions noted are these: Escherichia coli PQ37 cells expressing lacZ gene, read-out: FC.
Data set [24] is described as follows: Cytotoxicity against human MT4 cells assessed as reduction in cell viability at 300 uM after 72 hrs by MTT assay. The conditions noted are these: MT4, 72 h. Format: functional.
Data set [25] is described as follows: Ratio of IC50 for human U937 cells to concentration causing antioxidant activity in Salmonella typhimurium TA102 harboring […] mutant. Format: functional, U-937.
Data set [26] in a line: Ratio of IC50 for human RPMI8226 cells to concentration causing antioxidant activity in Salmonella typhimurium TA102 harboring […] mutant. The data set is classed as functional, RPMI-8226.
The nature of data set [27]: Ratio of IC50 for human CEM13 cells to concentration causing antioxidant activity in Salmonella typhimurium TA102 harboring […] mutant. Format: functional.
Data set [28] can be described thus: Ratio of IC50 for human HEPG2 cells to concentration causing antioxidant activity in Salmonella typhimurium TA102 harboring […] mutant. Format: functional.
Data set [29] in a line: Ratio of IC50 for human MCF7 cells to concentration causing antioxidant activity in Salmonella typhimurium TA102 harboring […] mutant. Format: functional.

On to `CC(C)(C)OO` [TERT-BUTYL HYDROPEROXIDE], for which the Activity in the data set on Salmonella typhimurium [1] was 482. Besides, the fold induction at 2 h, 1000 µM in data set [2] came to 11.6.

Consider `Cc1c(C)c2c(c(C)c1O)CCC(C)(C(=O)O)O2` (stereo not drawn) [TROLOX], for which the IC50 in data set [3] was 300 µM; in data set [5] it was 200 µM; in [9], > 300 µM; in data set [10], > 300 µM; in data set [11], > 300 µM; in [14], > 300 µM. Further, the Activity in the data set with Salmonella typhimurium [4] is 230. Also, the cytotoxicity at 72 h, 300 µM in data set [6] and in data set [15] was 0% in each case. Moreover, the inhibition in data set [7] stood at 14.5%; in data set [8], 8.8%; in data set [12] it was 4.7%. Besides, the inhibition at 300 µM was determined as 37% in [13], 14% in data set [16], 5% in data set [17] and 0% in data set [19]. Besides, the IC50 at 72 h in data set [18] and in [21] was > 300 µM throughout. In addition, the fold induction at 2 h, 3000 µM in [20] came out at 1.

Turning to `Cc1c(C)c2c(c(C)c1OC(=O)CCC(=O)O)CCC(C)(C(=O)NC1CC(C)(C)N([O])C1(C)C)O2` (stereo not drawn), the half-inhibitory concentration (IC50) is 163 µM in [3]; > 300 µM in [5]; > 300 µM in [9]; > 300 µM in data set [10]; > 300 µM in data set [11]; 205 µM in [14]. Further, the Activity in the data set with Salmonella typhimurium [4] is 221. For the same compound, the cytotoxicity at 72 h, 300 µM in data set [6] worked out at 27%; in [15] it was 0%. Further, the inhibition in data set [7] stood at 11%; in data set [8], 6%; in data set [12], 33%. For the same compound, the Ratio in data set [22], in data set [25], in [26], in [27], in [28] and in data set [29] was 100 - 1000 throughout. The fold induction at 2 h, 30000 µM in data set [23] is 1.2. The inhibition at 300 µM came out at 45% in data set [24], 25% in [16], 25% in data set [17] and 28% in [19]. Moreover, the IC50 at 72 h in data set [18] and in data set [21] was > 300 µM in each case.

For `Cc1c(C)c2c(c(C)c1OC(=O)CCC(=O)O)CCC(C)(C(=O)NCC1CC(C)(C)N([O])C1(C)C)O2` (stereo not drawn), the IC50 in [3] was 24 µM; in data set [5], > 300 µM; in [9], > 300 µM; in data set [10], > 300 µM; in [11], > 300 µM; in data set [14] it was > 300 µM. For the same compound, the Activity with Salmonella typhimurium [4] is on record as 205. Besides, the cytotoxicity at 72 h, 300 µM in data set [6] came out at 30%; in [15], 0%. Besides, the inhibition was 22% in data set [7], 31% in data set [8] and 18% in data set [12]. Besides, the Ratio in data set [22], in [25], in data set [26], in data set [27], in data set [28] and in [29] was 100 - 1000 in each case. Besides, the inhibition at 300 µM in [13] stood at 31%; in data set [24] it was 46%; in data set [16] it was 18%; in data set [17], 24%; in data set [19], 22%. The fold induction at 2 h, 30000 µM in [23] was determined as 1.3. In addition, the concentration for half-maximal inhibition (IC50) at 72 h in data set [18] and in [21] was > 300 µM throughout.

As to `Cc1c(C)c2c(c(C)c1O)CC[C@@](C)(CCC[C@H](C)CCC[C@H](C)CCCC(C)C)O2` [ALPHA-TOCOPHEROL], the IC50 was 100 µM in [3]; 165 µM in data set [5]; > 300 µM in [9]; > 300 µM in data set [10]; > 300 µM in [11]; > 300 µM in data set [14]. Moreover, the Activity in the data set on Salmonella typhimurium [4] is listed as 217. Besides, the cytotoxicity at 72 h, 300 µM turned out to be 12% in [6] and 28% in [15]. Moreover, the inhibition in [7] is 13%; in [8] it was 6%; in data set [12], 15%. The inhibition at 300 µM in [13] was determined as 35%; in data set [16] it was 0%; in [17] it was 37%; in data set [19], 0%. Moreover, the IC50 at 72 h in data set [18] and in data set [21] was > 300 µM each time. Further, the fold induction at 2 h, 3000 µM in data set [20] came to 1.28.

For the compound `Cc1c(C)c2c(c(C)c1OC(=O)CCC(=O)O)CCC(C)(C(=O)O)O2` (stereo not drawn), the IC50 in [3] is 120 µM; in data set [5] it was 285 µM; in data set [9] it was 242 µM; in data set [10], 63 µM; in data set [11], > 300 µM; in [14], 191 µM. Besides, the Activity with Salmonella typhimurium [4] is 216. In addition, the cytotoxicity at 72 h, 300 µM came to 27% in data set [6] and 7% in [15]. The inhibition in data set [7], in data set [8] and in [12] was 35% throughout. In data set [23], the fold induction at 2 h, 30000 µM is 1.1. In addition, the values for the inhibition at 300 µM in data set [24] and in [17] were 34% and 15%, respectively. Further, the concentration for half-maximal inhibition (IC50) at 72 h in [18] and in data set [21] was > 300 µM each time.
